Some test systems named below: CAKI-1 renal; DU-145 prostate; MOLT-4 leukemia; TK-10 renal; EKVX NSCLC; HCC-2998 colon; HL-60(TB) leukemia; SF-295 CNS; SNB-19 CNS; HT29 colon.
Holding throughout (assay): NCI anticancer screen, dose series, 48 h

Molecules are shown by their SMILES.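 Cells were grown in 96-well plates and exposed to each compound for 48 hours at five concentrations; endpoints were interpolated linearly between bracketing concentrations, or set to the highest concentration if not reached. GI50 marks 50% less growth. The concentration for full growth arrest is given as TGI.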

Regarding `COc1cc(/C=C2\CCCC3=C2NC(C)=NC3c2cc(OC)c(OC)c(OC)c2)cc(OC)c1OC` (configuration not stated), the GI50 in the assay with CAKI-1 renal is 2.61 µM; with DU-145 prostate, 1.53 µM; in the assay with MOLT-4 leukemia, 1.93 µM; in the assay on TK-10 renal, 4.33 µM. The TGI was 22.9 µM in the assay with CAKI-1 renal, above 100 µM in the assay on DU-145 prostate, above 100 µM in the assay with MOLT-4 leukemia and above 100 µM with TK-10 renal.

For the molecule `CCN(CC)CC(=O)O[C@]1(CC)C(=O)OCc2c1cc1n(c2=O)Cc2cc3ccccc3nc2-1`, the TGI in the assay on CAKI-1 renal was 0.145 µM; with DU-145 prostate it was 0.21 µM; with EKVX NSCLC, above 100 µM; in the assay with HCC-2998 colon, 1.28 µM; with HL-60(TB) leukemia it was 0.401 µM; with MOLT-4 leukemia, 0.0749 µM. Moreover, the values for the TGI in the assay on SF-295 CNS, in the assay with SNB-19 CNS and with TK-10 renal were 1.08 µM, 11.3 µM and 24.9 µM, respectively.

Regarding `NC(N)=N/N=C/c1c(-c2cccc([N+](=O)[O-])c2)nc2n1CCS2`, the TGI in the assay on CAKI-1 renal worked out at 68.4 µM; in the assay on DU-145 prostate, 36.4 µM; with EKVX NSCLC, 54.5 µM; in the assay with HCC-2998 colon, 48 µM; in the assay on HL-60(TB) leukemia it was 45.6 µM; with HT29 colon it was 32.7 µM. The TGI was 29.8 µM in the assay with MOLT-4 leukemia, 54.6 µM in the assay with SF-295 CNS, 32.1 µM with SNB-19 CNS and 47.4 µM with TK-10 renal.

As for `O=C1CCCCC2N(C(c3ccccc3)c3ccccc3)CC[C@@]12c1ccccc1` (mixture of isomers), the TGI is above 10 µM with CAKI-1 renal; above 10 µM in the assay with EKVX NSCLC; 9.4 µM in the assay on HL-60(TB) leukemia; above 10 µM in the assay with HT29 colon; above 10 µM with MOLT-4 leukemia; above 10 µM in the assay on SF-295 CNS. The TGI with SNB-19 CNS and in the assay with TK-10 renal was above 10 µM throughout.

Consider `CN(C)CCCN1c2ccccc2Sc2cnccc21`, for which the TGI in the assay with CAKI-1 renal, with DU-145 prostate, with EKVX NSCLC, in the assay with HL-60(TB) leukemia, in the assay on HT29 colon and with MOLT-4 leukemia was above 100 µM throughout. The TGI with SF-295 CNS, with SNB-19 CNS and in the assay with TK-10 renal was above 100 µM in each case.

Turning to `Cc1cc(O)c(C(C)(C)C)cc1Sc1cc(C(C)(C)C)c(O)cc1C`, the GI50 is 2.07 µM with CAKI-1 renal; 3.69 µM in the assay with DU-145 prostate; 2.93 µM with EKVX NSCLC; 2.45 µM in the assay on HCC-2998 colon; 2.6 µM with HL-60(TB) leukemia; 2.34 µM with HT29 colon. For the same molecule, the GI50 with MOLT-4 leukemia is 2.67 µM; with SF-295 CNS it was 2.32 µM; in the assay on SNB-19 CNS it was 3.72 µM; in the assay on TK-10 renal, 2.54 µM. Also, the TGI in the assay on CAKI-1 renal is 6.62 µM; with DU-145 prostate, 13.2 µM; with EKVX NSCLC it was 11.6 µM; with HCC-2998 colon, 5.56 µM; in the assay on HL-60(TB) leukemia, 6.35 µM; with HT29 colon, 4.47 µM. The TGI turned out to be 8.07 µM with MOLT-4 leukemia, 5.61 µM in the assay on SF-295 CNS, 13 µM in the assay with SNB-19 CNS and 6.22 µM in the assay with TK-10 renal.

In the case of `Clc1ccccc1/C=C/c1cscn1`, the TGI in the assay on EKVX NSCLC, in the assay with HCC-2998 colon, in the assay with HL-60(TB) leukemia, in the assay with HT29 colon, in the assay on MOLT-4 leukemia and in the assay with SNB-19 CNS was above 100 µM each time. In the assay on TK-10 renal, this molecule gave a TGI above 100 µM.

Turning to `O=C(O)Cc1cc(O)c(CC(=O)O)cc1O`, the TGI with CAKI-1 renal, in the assay on DU-145 prostate, in the assay on EKVX NSCLC, in the assay with HCC-2998 colon, in the assay with HL-60(TB) leukemia and in the assay with HT29 colon was above 100 µM in each case. Moreover, the TGI in the assay with MOLT-4 leukemia, in the assay on SF-295 CNS, in the assay with SNB-19 CNS and in the assay on TK-10 renal was above 100 µM throughout.

With `CCOC(=O)CN=C1NNS(=O)(=O)c2ccccc21`, the TGI in the assay with CAKI-1 renal, in the assay with DU-145 prostate, in the assay with EKVX NSCLC, with HCC-2998 colon, with HL-60(TB) leukemia and in the assay on HT29 colon was above 100 µM in each case. Moreover, the TGI in the assay on MOLT-4 leukemia, in the assay with SF-295 CNS, in the assay with SNB-19 CNS and with TK-10 renal was above 100 µM each time.

`COc1ccc(C2C3=C(Nc4ncnn42)c2ccccc2OC3c2ccccc2)cc1` (configuration not stated): the TGI was above 100 µM in the assay on CAKI-1 renal; above 100 µM in the assay on DU-145 prostate; 8.92 µM with HL-60(TB) leukemia; 51 µM in the assay with MOLT-4 leukemia; above 100 µM in the assay on SF-295 CNS; above 100 µM in the assay with SNB-19 CNS.

As for `CCOC(=O)C(O)(NC(=O)c1ccc(F)cc1)C(F)(F)F` (configuration not stated), the TGI with CAKI-1 renal, in the assay on DU-145 prostate, with EKVX NSCLC, in the assay with HCC-2998 colon, in the assay on HL-60(TB) leukemia and in the assay with HT29 colon was above 100 µM each time. Moreover, the TGI with MOLT-4 leukemia, in the assay with SF-295 CNS, with SNB-19 CNS and in the assay on TK-10 renal was above 100 µM each time.

On to `Cn1c(=O)c2[nH]c(CCCCC(=O)O)nc2n(C)c1=O`, for which the TGI with CAKI-1 renal, with DU-145 prostate, in the assay with EKVX NSCLC, with HCC-2998 colon, in the assay on HT29 colon and in the assay with MOLT-4 leukemia was above 100 µM in each case. The TGI in the assay on SF-295 CNS, in the assay with SNB-19 CNS and in the assay on TK-10 renal was above 100 µM in each case.

With `N#Cc1c(Cl)c2cc([N+](=O)[O-])ccc2n2c1nc1ccccc12`, the TGI was found to be 4.78 µM in the assay with CAKI-1 renal; 18.4 µM in the assay on DU-145 prostate; 34.2 µM with EKVX NSCLC; 19.4 µM with HCC-2998 colon; 0.58 µM with HL-60(TB) leukemia; 18.4 µM in the assay on HT29 colon. The TGI in the assay on SF-295 CNS was 62.4 µM; in the assay on SNB-19 CNS, 20.3 µM; in the assay with TK-10 renal, 8.95 µM.

On to `CN(/N=C/c1ccc(OCc2cccc(COc3ccc(C=O)cc3)n2)cc1)c1cnn(-c2ccc(Cl)cc2Cl)c(=O)c1Cl`, for which the TGI in the assay with CAKI-1 renal, in the assay on DU-145 prostate, in the assay on EKVX NSCLC, in the assay with HCC-2998 colon, in the assay on HL-60(TB) leukemia and in the assay on HT29 colon was above 100 µM in each case. For the same molecule, the TGI with MOLT-4 leukemia, with SF-295 CNS, in the assay with SNB-19 CNS and in the assay on TK-10 renal was above 100 µM each time.

With `O=C1NN(C2=NNC3(C(=O)N2)c2ccccc2-c2ccccc23)C(c2ccccc2)=N/C1=C/c1ccc(O)cc1`, the GI50 in the assay with CAKI-1 renal is 64.2 µg/mL; in the assay on DU-145 prostate it was 90.8 µg/mL; in the assay on EKVX NSCLC it was 47.4 µg/mL; in the assay on HL-60(TB) leukemia it was 51.7 µg/mL; with HT29 colon it was above 150 µg/mL; in the assay on MOLT-4 leukemia it was 15 µg/mL. The GI50 with SF-295 CNS is 56.9 µg/mL; in the assay with SNB-19 CNS, 94.9 µg/mL; in the assay on TK-10 renal, 39.1 µg/mL. The TGI was above 150 µg/mL with CAKI-1 renal; above 150 µg/mL with DU-145 prostate; above 150 µg/mL with EKVX NSCLC; above 150 µg/mL in the assay with HL-60(TB) leukemia; above 150 µg/mL with HT29 colon; 15 µg/mL with MOLT-4 leukemia. For the same molecule, the TGI in the assay on SF-295 CNS was above 150 µg/mL; in the assay on SNB-19 CNS, above 150 µg/mL; in the assay with TK-10 renal, 71.9 µg/mL.

`O=S1(=O)N(CCNc2nccc(-c3c(-c4cccc(O)c4)nc4sccn34)n2)CCN1Cc1ccccc1`: the GI50 in the assay with CAKI-1 renal is 4.4 µM; in the assay on DU-145 prostate it was 8.1 µM; in the assay with EKVX NSCLC, 26.8 µM; in the assay on HCC-2998 colon, 14.2 µM; in the assay on HL-60(TB) leukemia, 8.4 µM; with HT29 colon it was 2.57 µM. In addition, the GI50 is 7.84 µM in the assay on MOLT-4 leukemia, 7.57 µM in the assay on SF-295 CNS, 36.4 µM in the assay with SNB-19 CNS and 4.07 µM in the assay on TK-10 renal. Moreover, the TGI is 17.8 µM with CAKI-1 renal; 26.1 µM with DU-145 prostate; above 50 µM in the assay with EKVX NSCLC; 39.8 µM in the assay on HCC-2998 colon; 20.1 µM with HL-60(TB) leukemia; 36.4 µM with HT29 colon. Further, the TGI was 40.3 µM in the assay on MOLT-4 leukemia, 20.3 µM in the assay on SF-295 CNS, above 50 µM in the assay on SNB-19 CNS and 29.2 µM in the assay with TK-10 renal.

As for `Cc1nc2ccccc2n1C(=O)c1c(F)c(F)c(F)c(F)c1F`, the TGI is 48.9 µM in the assay on CAKI-1 renal; 76.5 µM in the assay on DU-145 prostate; above 100 µM in the assay with EKVX NSCLC; 34.2 µM in the assay with HCC-2998 colon; above 100 µM with HL-60(TB) leukemia; 27.5 µM in the assay on HT29 colon. The TGI was 27.1 µM with MOLT-4 leukemia, above 100 µM in the assay with SF-295 CNS, above 100 µM with SNB-19 CNS and 66.3 µM with TK-10 renal.

`O=c1c2cc(S(=O)(=O)O)ccc2nc(COc2ccc(Oc3ccc(Cl)cc3Cl)cc2)n1-c1ccc(Cl)cc1Oc1c(Cl)cccc1Cl`: the TGI was above 100 µM in the assay with CAKI-1 renal; above 100 µM with DU-145 prostate; 40.4 µM in the assay on EKVX NSCLC; above 100 µM in the assay with HL-60(TB) leukemia; 39.9 µM with HT29 colon; above 100 µM with MOLT-4 leukemia. Besides, the TGI was 56.6 µM in the assay with SF-295 CNS, above 100 µM in the assay with SNB-19 CNS and above 100 µM with TK-10 renal.

Regarding `C=CC1(C)CCC2=C(CCC3C(C)(C(=O)OC)CCCC23C)C1=O` (configuration not stated), the TGI is 87.1 µM with CAKI-1 renal; 32.8 µM in the assay with EKVX NSCLC; 55.2 µM with HL-60(TB) leukemia; 31.2 µM in the assay on HT29 colon; 72.5 µM in the assay on SF-295 CNS; above 100 µM in the assay with SNB-19 CNS. This molecule yielded a TGI in the assay on TK-10 renal of 56.4 µM.

Turning to `COc1cc(O)c2c(c1)OCC(Cc1ccc(O)cc1)C2=O` (configuration not stated), the TGI with CAKI-1 renal, in the assay with DU-145 prostate, with HL-60(TB) leukemia, with HT29 colon, in the assay with MOLT-4 leukemia and in the assay with SF-295 CNS was above 100 µM each time. For the same molecule, the TGI in the assay with SNB-19 CNS and with TK-10 renal was above 100 µM in each case.

Turning to `Cc1ccc2c(c1)C1(C)OC(C=CC1=O)O2` (configuration not stated), the TGI was 1.49 µM in the assay with CAKI-1 renal; 8.45 µM with DU-145 prostate; 7.69 µM in the assay on EKVX NSCLC; 8.15 µM in the assay with HCC-2998 colon; 0.998 µM in the assay with HL-60(TB) leukemia; 0.684 µM with HT29 colon. Further, the TGI in the assay with MOLT-4 leukemia was found to be 0.862 µM; with SF-295 CNS, 11.9 µM; with SNB-19 CNS, 8.97 µM; in the assay with TK-10 renal it was 5.5 µM.

Source of the values: PubChem BioAssay (NCI).
